Experimental data as given in US20230234967A1, “Fused Azole Heterocycles as AHR Antagonists” (Senda Biosciences, Inc., priority 2021, published 2023).
≈ marks a conversion by molar mass, not a printed value. Where two headings read alike, the source gives them in different places.

Legend:
[1] = Solubility Determination Assay (PBS pH 1.6 and pH 7.4); type: physicochemical; conditions: PBS buffer, aqueous buffer, kinetic from dmso stock, 2 hours shaking
Experimental: Example 31: Solubility Determination Assay
The stock solutions of test compounds and control compound progesterone were prepared in DMSO at the concentrations of 10 mM. 15 μL of stock solution (10 mM) of each sample was placed in order into their proper 96-well rack. 485 μL of PBS pH 1.6 and pH 7.4 were added into each vial of the cap-less Solubility Sample plate. The assay was performed in singlet. One stir stick was added to each vial and then the vial was sealed using a molded PTFE/Silicone plug. The solubility sample plates were then transferred to the Eppendorf Thermomixer Comfort plate shaker and shaken at 25° C. at 1100 rpm for 2 hours. After completion of the 2 hours, plugs were removed and the stir sticks were removed using a big magnet. The samples from the Solubility Sample plate were transferred into the filter plate. Using the Vacuum Manifold, all the samples were filtered. An aliquot of 5 μL was taken from the filtrate followed by addition of 495 μL of a mixture of H2O and acetonitrile containing internal standard (1:1). A certain proportion of ultrapure water was used to dilute the diluent according to the peak shape. The dilution factor was changed according to the solubility values and the LC-MS signal response.
From the 10 mM DMSO STD plate, 6 μL was transferred into the remaining empty plate, and then 194 μL of DMSO were added to that plate to have a STD concentration of 300 μM. From the 300 μM DMSO STD plate, 5 μL were transferred into the remaining empty plate, and then 495 μL of a mixture of H2O and acetonitrile containing internal standard (1:1) were added to that plate to have a final STD concentration of 3 μM. A certain proportion of ultrapure water was used to dilute the diluent according to the peak shape. The concentrations of the standard samples were changed according to the LC-MS signal response.
The plate was placed into the well plate autosampler. The samples were evaluated by LC-MS/MS analysis.
All calculations were carried out using Microsoft Excel.
The filtrate was analyzed and quantified against a standard of known concentration using LC coupled with mass spectral peak identification and quantitation. Solubility values of the test compound and control compound were calculated as follows: […]
Any value of the compounds that was not within the specified limits was rejected and the experiment was repeated.
“+++” indicates a solubility value equal to or greater than […] “++” indicates a solubility value between 0.1 and 1 μM and “+” indicates a solubility value less than 0.1 μM.

[2] = Hepatocyte Stability Assay, human hepatocytes; type: in vitro ADME; conditions: cryopreserved human hepatocytes, read-out: Human hepatocyte clearance
Experimental: Example 32: Hepatocyte Stability Assay
Preparation of working solutions: 10 mM stock solutions of test compound and positive control were prepared in DMSO. In separate conical tubes, the 10 mM solution of test compound and the positive control were diluted to 100 μM by combining 198 μL of 50% acetonitrile/50% water and 2 μL of 10 mM stock.
Preparation of Hepatocytes: Incubation medium (William's E Medium supplemented with GlutaMAX) and hepatocyte thawing medium were placed in a 37° C. water bath and allowed warming for at least 15 minutes prior to use. A vial of cryopreserved hepatocytes was transferred from storage, ensuring that vials remained at cryogenic temperatures until thawing process ensued. Cells were thawed by placing the vial in a 37° C. water bath and gently shaking the vials for 2 minutes. After thawing was completed, vial was sprayed with 70% ethanol and transferred to a biosafety cabinet. Wide-bore pipette tip were used to transfer hepatocytes into 50 mL conical tube containing thawing medium. The 50 mL conical tube were placed into a centrifuge and spun at 100 g for 10 minutes. Upon completion of spin, thawing medium was aspirated and resuspended hepatocytes in enough incubation medium to yield ˜1.5×10^6 cells/mL. Using an AO/PI Staining, cells were counted and the viable cell density was determined. Cells with poor viability (<75% viability) were determined to be not acceptable for use. Cells were diluted with incubation medium to a working cell density of 0.5×10^6 viable cells/mL.
Procedure for Stability Determination: 198 μL of hepatocytes were pipetted into each wells of a 96-well non-coated plate. The plate was placed in the incubator to allow the hepatocytes to warm for 10 minutes. 2 μL of the 100 μM test compound or positive control solutions were pipetted into respective wells of the 96-well non-coated plate to start the reaction. The plate was returned to the incubator for the designed time points. Well contents was transferred in 25 μL aliquots at time points of 0, 15, 30, 60, 90 and 120 minutes. The aliquots were then mixed with 6 volumes (150 μL) of acetonitrile containing internal standard, IS (100 nM alprazolam, 200 nM caffeine and 100 nM tolbutamide) to terminate the reaction. The mixture was vortex for 5 minutes. Samples were centrifuged for 45 minutes at 3,220 g. An aliquot of 100 μL of the supernatant was diluted by 100 μL ultra-pure water, and the mixture was used for LC/MS/MS analysis. All incubations were performed in duplicate.
Data Analysis: All calculations were carried out using Microsoft Excel. Peak areas were determined from extracted ion chromatograms. In vitro half-life (t1/2) of parent compound was determined by regression analysis of the percent parent disappearance vs. time curve.
The in vitro half-life (in vitro t1/2) was determined from the slope value:
Conversion of the in vitro t1/2 (in min) into the in vitro intrinsic clearance (in vitro CLint, in μL/min/1×10^6 cells) was done using the following equation (mean of duplicate determinations): • in vitro CLint=kV/N • V=incubation volume (0.2 mL); • N=number of hepatocytes per well (0.1×10^6 cells).
“+++” indicates a CLint value less than 20 mL/min/Kg, “++” indicates a CLint between 20 and 50 mL/min/Kg, and “+” indicates an CLint above 50 mL/min/Kg.

[3] = PBS pH 1.6, 25° C., read-out: Aq. Solubility at pH = 1.6
[4] = PBS pH 7.4, 25° C., read-out: Aq. Solubility at pH = 7.4

Row | Compound | solubility at 2 h [1, 3] [µM] | solubility at 2 h [1, 4] [µM] | CLint scaled at 1 µM [2] [mL/min/kg]
1 | Cc1ccccc1-c1ccc2nc(NC(=O)c3ccccn3)sc2n1 [Product 8, N-(5-(o-tolyl)thiazolo[5,4-b]pyridin-2-yl)picolinamide] | 0.1 to 1 (≈ 0.0346 to 0.346 µg/mL) | < 0.1 | 20 to 50
2 | COc1ccccc1-c1ccc2nc(NC(=O)c3ccccn3)sc2n1 [Product 12, N-(5-(2-methoxyphenyl)thiazolo[5,4-b]pyridin-2-yl)picolinamide] | 0.1 to 1 (≈ 0.0362 to 0.362 µg/mL) | 0.1 to 1 (≈ 0.0362 to 0.362 µg/mL) | 20 to 50
3 | Cn1ncnc1C(=O)Nc1cnc2cc(-c3cc(F)ccc3C(F)F)[nH]c2c1 [Product 47] | ≥ 1 | 0.1 to 1 (≈ 0.0386 to 0.386 µg/mL) | < 20
4 | Cc1ccccc1-c1ccc2nc(NC(=O)N3CCOCC3)sc2n1 [Product 39, N-(5-(o-tolyl)thiazolo[5,4-b]pyridin-2-yl)morpholine-4-carboxamide] | ≥ 1 | ≥ 1 | < 20

More lines, now with the values ahead:

Row | solubility at 2 h [1, 3] [µM] | solubility at 2 h [1, 4] [µM] | CLint scaled at 1 µM [2] [mL/min/kg] | Compound
5 | ≥ 1 | ≥ 1 | 20 to 50 | CN(C)c1ccccc1-c1ccc2nc(NC(=O)c3ccnn3C)sc2n1 [Product 18, N-(5-(2-(dimethylamino)phenyl)thiazolo[5,4-b]pyridin-2-yl)-1-methyl-1H-pyrazole-5-carboxamide]
6 | ≥ 1 | ≥ 1 | < 20 | COc1ccccc1-c1ccc2nc(NC(=O)c3ccnn3C)sc2n1 [Product 25, N-(5-(2-methoxyphenyl)thiazolo[5,4-b]pyridin-2-yl)-1-methyl-1H-pyrazole-5-carboxamide]
7 | 0.1 to 1 (≈ 0.0349 to 0.349 µg/mL) | ≥ 1 | < 20 | Cc1ccccc1-c1ccc2nc(NC(=O)c3ccnn3C)sc2n1 [Product 15, 1-Methyl-N-(5-(o-tolyl)thiazolo[5,4-b]pyridin-2-yl)-1H-pyrazole-5-carboxamide]
